In the supplement of paper PMC10307832:

Experiments:
Experiment in all cases: relative viability (nuclei count vs DMSO), 5 days (fraction); higher = more cells survive
kb NB 142-70 + Foretinib = compound: C1CSC2=C(C(=O)N1)SC3=C2C=C(C=C3)O [kb NB 142-70] + COc1cc2c(Oc3ccc(NC(=O)C4(C(=O)Nc5ccc(F)cc5)CC4)cc3F)ccnc2cc1OCCCN1CCOCC1 [Foretinib] (partner 0.25 µM)
In short: (§1)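 Relative viability equals treated-well nuclei counts divided by vehicle-well nuclei counts. Counts came from 4× images of lung cancer cell lines grown in 1536-well plates for 5 days after pin-tool dosing on the day after seeding. Dosing used one drug alone or a fixed anchor-drug dose plus five library-drug doses (not always all listed) in √10 steps, and values are medians of duplicate plates.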

[1] = compound: C1CSC2=C(C(=O)N1)SC3=C2C=C(C=C3)O [kb NB 142-70] + C[C@]1(O)C[C@@H](c2nc(-c3ccc4ccc(-c5ccccc5)nc4c3)c3c(N)nccn32)C1 [Linsitinib] (partner 1 µM)
In short: as §1

[2] = compound: NCC(=O)Nc1ccc(-n2nc(C(F)(F)F)cc2-c2ccc3c(ccc4ccccc43)c2)cc1 + CS(=O)(=O)N1CCN(Cc2cc3nc(-c4cccc5[nH]ncc45)nc(N4CCOCC4)c3s2)CC1 [Pictilisib] (partner 1 µM)
In short: as §1

[3] = compound: NCC(=O)Nc1ccc(-n2nc(C(F)(F)F)cc2-c2ccc3c(ccc4ccccc43)c2)cc1 + CC(=O)Nc1cccc(-n2c(=O)n(C3CC3)c(=O)c3c(Nc4ccc(I)cc4F)n(C)c(=O)c(C)c32)c1 [Trametinib] (partner 0.02 µM)
In short: as §1

[4] = compound: C1CSC2=C(C(=O)N1)SC3=C2C=C(C=C3)O [kb NB 142-70] + C[C@@H](Oc1cc(-c2cnn(C3CCNCC3)c2)cnc1N)c1c(Cl)ccc(F)c1Cl [Crizotinib] (partner 1 µM)
In short: as §1

Row | Cell Line | relative viability (kb NB 142-70 + Foretinib; first compound 0.1 µM) | relative viability (kb NB 142-70 + Foretinib; first compound 1 µM) | relative viability (kb NB 142-70 + Foretinib; first compound 3.162 µM) | relative viability ([1]; first compound 0.1 µM) | relative viability ([1]; first compound 1 µM) | relative viability ([1]; first compound 3.162 µM) | relative viability ([2]; first compound 0.02 µM) | relative viability ([2]; first compound 0.06325 µM) | relative viability ([2]; first compound 0.2 µM) | relative viability ([2]; first compound 0.6325 µM) | relative viability ([2]; first compound 2 µM) | relative viability ([3]; first compound 0.02 µM) | relative viability ([3]; first compound 0.06325 µM) | relative viability ([3]; first compound 0.2 µM) | relative viability ([3]; first compound 0.6325 µM) | relative viability ([3]; first compound 2 µM) | relative viability ([4]; first compound 0.1 µM) | relative viability ([4]; first compound 1 µM) | relative viability ([4]; first compound 3.162 µM)
1 | NCI-H1993 | 0.739 | 0.762 | 0.744 | 0.792 | 0.715 | 0.67 | 0.759 | 0.773 | 0.738 | 0.838 | 0.861 | 0.494 | 0.41 | 0.586 | 0.64 | 0.515 | 0.842 | 0.892 | 0.854
2 | NCI-H322M | 0.891 | 1.04 | 1.04 | 0.89 | 1.03 | 0.938 | 0.516 | 0.515 | 0.521 | 0.523 | 0.483 | 0.521 | 0.482 | 0.537 | 0.5 | 0.547 | 1 | 1.1 | 1
3 | NCI-H838 | 1.02 | 1.06 | 1.04 | 0.993 | 1.08 | 0.98 | 0.474 | 0.441 | 0.5 | 0.432 | 0.45 | 0.515 | 0.539 | 0.521 | 0.43 | 0.411 | 0.782 | 0.914 | 0.877
4 | HARA | 0.771 | 0.521 | 0.867 | 1.05 | 0.975 | 0.631 | 0.418 | 0.355 | 0.486 | 0.568 | 0.559 | 0.792 | 0.771 | 0.586 | 0.659 | 0.919 | 0.922 | 0.817 | 0.922
5 | NCI-H2087 | 1.25 | 1.32 | 0.968 | 1.05 | 0.956 | 0.915 | 0.77 | 0.709 | 0.723 | 0.801 | 0.848 | 0.155 | 0.209 | 0.214 | 0.181 | 0.185 | 0.562 | 0.903 | 0.868
6 | NCI-H1437 | 1.28 | 1.3 | 1.22 | 1.15 | 1.1 | 1.07 | 0.542 | 0.411 | 0.421 | 0.523 | 0.456 | 0.519 | 0.579 | 0.497 | 0.467 | 0.683 | 1.01 | 0.997 | 0.946
7 | NCI-H650 | 1.02 | 1.06 | 0.851 | 0.908 | 0.878 | 0.755 | 0.843 | 0.913 | 1.05 | 0.782 | 0.948 | 0.991 | 1.03 | 1.01 | 0.948 | 0.994 | 0.715 | 0.683 | 0.449
8 | COR-L23 | 1.06 | 1.04 | 0.457 | 0.953 | 0.901 | 0.303 | 0.712 | 0.767 | 0.95 | 0.798 | 0.613 | 0.593 | 0.637 | 0.568 | 0.549 | 0.491 | 0.679 | 0.818 | 0.278
9 | COR-L 105 | 1.11 | 1.03 | 1 | 1.17 | 1 | 0.94 | 0.426 | 0.357 | 0.423 | 0.363 | 0.391 | 0.456 | 0.482 | 0.491 | 0.416 | 0.432 | 0.564 | 0.816 | 0.925
10 | LK-2 | 1.15 | 1.07 | 0.819 | 0.751 | 0.384 | 0.245 | 0.536 | 0.669 | 0.462 | 0.577 | 0.616 | 0.659 | 0.751 | 0.703 | 0.826 | 0.686 | 0.225 | 0.226 | 0.204
11 | 201T | 1.07 | 1.17 | 1.08 | 1.04 | 1.05 | 1.02 | 0.664 | 0.655 | 0.68 | 0.734 | 0.687 | 0.692 | 0.717 | 0.747 | 0.725 | 0.696 | 0.989 | 1.07 | 1.03
12 | NCI-H596 | 0.887 | 0.866 | 0.89 | 1.13 | 1.02 | 0.837 | 0.412 | 0.458 | 0.425 | 0.404 | 0.407 | 0.804 | 0.725 | 0.827 | 0.83 | 1.25 | 1.03 | 1.03 | 0.933
13 | H3255 | 0.742 | 0.946 | 1.05 | 0.824 | 0.984 | 0.905 | 0.553 | 0.527 | 0.493 | 0.467 | 0.513 | 0.642 | 0.579 | 0.592 | 0.629 | 0.674 | 0.97 | 0.776 | 0.958
14 | NCI-H647 | 1.28 | 1.28 | 1.24 | 1.1 | 1.2 | 1.17 | – | 0.479 | 0.548 | 0.406 | 0.496 | 0.535 | 0.512 | 0.591 | 0.434 | 0.49 | 1.08 | 1.27 | 1.12
15 | NCI-H2023 | 0.859 | 0.89 | 0.663 | 0.698 | 0.673 | 0.396 | 0.229 | 0.232 | 0.201 | 0.207 | 0.242 | 0.552 | 0.709 | 0.702 | 0.513 | 0.358 | 0.699 | 0.761 | 0.551
16 | NCI-H23 | 1.06 | 0.819 | 0.642 | 0.708 | 0.529 | 0.289 | 0.436 | 0.511 | 0.557 | 0.489 | 0.424 | 0.313 | 0.456 | 0.448 | 0.422 | 0.352 | 0.502 | 0.522 | 0.253
17 | NCI-H1944 | 0.883 | 0.934 | 0.998 | 1.17 | 1.24 | 1.18 | 0.349 | 0.359 | 0.326 | 0.35 | 0.331 | 0.429 | 0.408 | 0.437 | 0.413 | 0.403 | 1.02 | 1.31 | 1.23
